According to USRE37534E1, “Pharmaceutical compositions” (BTG International Limited, priority 1982, dated 2002):
Each block holds one compound with its values, some of them ahead of it.

Assays:
human erythrocytes = experiment: Permeation of iron complexes into human erythrocytes (59Fe distribution ratio); assay type: cell-based; conditions: 37° C.; for Distribution ratio (concentration in erythrocytes/concentration in medium): 1 hour, pH 7.4
Procedure: Following this period of incubation an aliquot of the erythrocyte/medium mixture was placed above a layer of silicone oil (ρ=1.06) and the erythrocytes separated by centrifugation through the oil. The ^59Fe levels associated with the erythrocytes and the incubation medium were then counted and presented as a distribution ratio (concentration in erythrocytes/concentration in medium).

rat jejunal sac = experiment: Permeation of everted rat jejunal sac by iron complexes; assay type: in vitro ADME; conditions: for Relative iron uptake, 15 minutes / Relative iron uptake, 60 minutes: relative to ferric chloride as 1
Excerpt: Rats (male Sprague Dawley, 60 g) were killed and the jejunum removed, everted and cut into three segments (4 cm length). […] The contents of the sac were counted for ^59Fe and measured spectrophotometrically. […] The procedure described above was used to compare the uptake of iron from buffer containing differing molar proportions of maltol:iron.

[1] = Affinity / stability constant of ligand for iron(III); assay type: physicochemical
Excerpt: (§1) In order to solubilise iron(III) hydroxide, log Ksol must be greater than 0. The value of Ksol for maltol is 0.8 and this is also sufficiently large to prevent appreciable competition from phytate, phosphate, thiols and other potential ligands likely to occur in the intestinal lumen.

[2] = Ksol (ability to solubilise iron(III) hydroxide); assay type: physicochemical
Excerpt: as §1

[3] = Partition coefficient Kpart n-octanol / Tris hydrochloride; assay type: physicochemical; conditions: pH 7.4
Procedure: An indication of the properties of a compound in this respect is provided by the value of the partition coefficient (Kpart) obtained on partition between n-octanol and Tris hydrochloride (20 mM, pH 7.4; Tris representing 2-amino-2-hydroxymethylpropane 1,3-diol) at 20° C. and expressed as the ratio (concentration of compound in organic phase)/(concentration of compound in aqueous phase).
The partition coefficient Kpart (concentration in n-octanol/concentration in aqueous phase) between n-octanol and Tris hydrochloride (20 mM, pH 7.4) of maltol and of its 3:1 iron complex is measured at 10^−4 M by spectrophotometry. Acid washed glassware is used throughout and, following mixing for 1 minute, the aqueous/n-octanol mixture is […] at 1000 g for 30 seconds. The two resulting phases are separated for a concentration determination by spectrophotometry on each. For maltol, the range 220-340 nm is used for the concentration determination whilst for the complex the range 340-640 nm is used.

[4] = Iron take-up in human subjects by whole body counting; assay type: in vivo; conditions: for level of take-up of iron by whole body counting: normal subject
Procedure: Capsules containing 3:1 iron(III) maltol, […] were prepared according to the procedure of Example 7^(1) with the modification that at 3:1 molar ratio of maltol:iron was used (no free maltol therefore being present in the capsules) and that a proportion of the ferric chloride used in the preparation of the iron maltol was radiolabelled as ^59Fe. The capsules each contained 10 mg of iron, this amount being labelled with 1 microcurie of ^59Fe, and were subjected to a single coating procedure.
The test involved two normal subjects, i.e. not suffering from iron deficiency, one of whom took a 10 mg dose of iron (one capsule) and the other whom took a 20 mg does of iron (two capsules). The capsule or capsules were taken after fasting overnight and fasting was then continued for a further 2 hours. The take-up of iron by the subjects was followed by means of whole body counting, using a calibrated body counter, reading being taken 4 to 8 hours after ingestion of the capsules to establish a base level and then after 7 and 14 days. Excretion of iron by the subjects was followed through the counting, in a large volume counter calibrated for iron, of daily urine samples over 3 days and daily stool samples over 10 days.

[5] = In vivo 59Fe uptake after administration into the duodenum of the rat; conditions: 100 μg Fe into duodenum; for introduction of iron via the rat intestine (59Fe in organs), comparison: 1-6 hours, FIGS. 1-4
Procedure: Groups of rats (300-350 g) were anaesthetised with nembutal (0.25 ml) and then with ether. […] The abdominal well was then closed with a suture. […] In the case of the data for blood and sternum (bone marrow) the counts given are cpm/ml and cpm/g respectively, whilst in all other cases they are the total cpm counts.

[6] = In vivo 59Fe blood kinetics and tissue distribution in the cat, intravenous; conditions: for Net ^59Fe content (cpm/g) / Net total ^59Fe content (cpm): 2 μCi given, figures adjusted to 2.2×10^6 cpm
Procedure: Body temperature was monitored with a rectal thermometer.
The iron maltol complex (100 μg Fe) alone (3:1 molar ratio of maltol:iron) and together with a large excess of maltol (40:1 molar ratio of maltol:iron) was injected intravenously in separate experiments and 0.25 ml samples of blood were taken in intervals. The apparent volume of distribution of the compound was calculated by extrapolation of the log-linear blood concentration curve to zero.
The amount of ^59Fe administration in this experiment was 4 μCi or 2.2×10^6 cpm.

[7] = in vivo
Excerpt: (§3) In each animal the trachea was cannulated to maintain a clear airway and to allow positive pressure artificial respiration if necessary. The left femoral vien was cannulated for the intravenous administration of drugs and physiological saline solution. Arterial blood pressure was monitored by a Washington pressure transducer through a cannula inserted into the femoral artery of the right hind leg. Arterial blood samples were taken at appropriate intervals from a short cannula inserted into an external carotid artery. Body temperature was monitored with a rectal thermometer. Each animal was given heparin (1000 iu/kg) as anticoagulant and additional small amounts of pentobarbitone sodium if needed to maintain a satisfactory level of anaesthesia.
(§4) If those animals where the iron compounds were to be administered into the duodenum, a mid-line incision was made in the abdomen to reveal the intestines. A cannula was then inserted through a small cut such that its tip rested approximately 5 cm below the opening of the bile duct. The cannula was then sutured in place and the abdominal wall closed with stitches.
(§5) The iron maltol complex (100 μg Fe) was also administered to the duodenum of the cat in the presence of a 40 fold excess of maltol followed by 5 ml of 150 ml tris hydrochloride buffer (pH 7.4).

[8] = In vivo 59Fe blood level and tissue distribution in the cat, per duodenum; conditions: 2.65×10^6 cpm administered
Excerpt: as §3, §4, §5

haemoglobin = haemoglobin (Homo sapiens, UniProt P68871+P69905); experiment: Binding of 59Fe-labelled complex to haemoglobin (gel permeation column); conditions: 59Fe-labelled complex 1 mM, NaCl 130 mM, pH 7.4
haemoglobin, sequence (P69905 2-142 limits assumed): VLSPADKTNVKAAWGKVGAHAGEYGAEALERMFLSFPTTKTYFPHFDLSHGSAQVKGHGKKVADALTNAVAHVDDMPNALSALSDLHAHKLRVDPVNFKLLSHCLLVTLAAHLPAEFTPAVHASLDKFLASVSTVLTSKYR
haemoglobin, sequence (P68871 2-147 limits assumed): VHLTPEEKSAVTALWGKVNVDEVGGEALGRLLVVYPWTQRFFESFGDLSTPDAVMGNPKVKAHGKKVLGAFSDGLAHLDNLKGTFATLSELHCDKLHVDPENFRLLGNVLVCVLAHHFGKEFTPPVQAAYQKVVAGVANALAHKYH
Procedure: (§2) The ability of the iron complex of maltol to bind to haemoglobin is investigated by studying the elution profile of a ^59Fe label when a mixture of haemoglobin and the ^59Fe-labeled complex (at 1 mM concentration) in NaCl (130 mM) buffered to pH 7.4 by Tris hydrochloride is applied to a PH-10 column (Sephadex G-10 gel permeation column—Pharmacia).

[9] = biological target: bovine serum albmen (BSA) (Bos taurus, UniProt P02769); experiment: Binding of complex to BSA (gel permeation column); conditions: as haemoglobin procedure, pH 7.4
bovine serum albmen (BSA), sequence (P02769 25-607): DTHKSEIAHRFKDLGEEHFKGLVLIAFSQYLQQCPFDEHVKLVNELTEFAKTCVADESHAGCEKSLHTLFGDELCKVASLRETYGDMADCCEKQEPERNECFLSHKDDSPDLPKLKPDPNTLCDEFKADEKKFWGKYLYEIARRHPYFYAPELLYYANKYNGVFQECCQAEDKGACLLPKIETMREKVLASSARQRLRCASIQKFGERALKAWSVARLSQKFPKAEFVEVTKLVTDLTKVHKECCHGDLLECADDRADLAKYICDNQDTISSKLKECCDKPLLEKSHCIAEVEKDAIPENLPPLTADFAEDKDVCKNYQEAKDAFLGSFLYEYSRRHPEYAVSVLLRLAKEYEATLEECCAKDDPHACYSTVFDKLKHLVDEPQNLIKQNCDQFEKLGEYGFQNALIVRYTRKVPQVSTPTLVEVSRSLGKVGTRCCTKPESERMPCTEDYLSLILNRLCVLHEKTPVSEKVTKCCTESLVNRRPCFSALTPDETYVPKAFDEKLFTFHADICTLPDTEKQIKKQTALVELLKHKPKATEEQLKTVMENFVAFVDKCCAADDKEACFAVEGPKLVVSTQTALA
Procedure: as §2
The ability of the iron complex of maltol to bind to bovine serum albmen (BSA) is investigated through a similar procedure in which the complex is applied to a column with BSA rather than haemoglobin.

- Relative iron uptake, 15 minutes (rat jejunal sac): 4.0
- Relative iron uptake, 60 minutes (rat jejunal sac): 1.8
Compound: O=C([O-])/C=C/C(=O)[O-].[Fe+2] [Fe^II fumarate]

- levels of 59Fe in the intestine wall and blood ([5]; FIG. 3): extremely low
- Net ^59Fe content (cpm/g) ([6]; Heart, i.v.): 209 cpm/g
- Net total ^59Fe content (cpm) ([6]; Heart, i.v.): 3,248 cpm
- Net ^59Fe content (cpm/g) ([6]; Kidney, i.v.): 1,134 cpm/g
- Net total ^59Fe content (cpm) ([6]; Kidney, i.v.): 21,770 cpm
- Net ^59Fe content (cpm/g) ([6]; Liver, i.v.): 261 cpm/g
- Net total ^59Fe content (cpm) ([6]; Liver, i.v.): 19,600 cpm
- Net ^59Fe content (cpm/g) ([6]; Skeletal muscle, i.v.): 95 cpm/g
- Net ^59Fe content (cpm/g) ([6]; Spleen, i.v.): 162 cpm/g
- Net total ^59Fe content (cpm) ([6]; Spleen, i.v.): 1,814 cpm
- Net ^59Fe content (cpm/g) ([6]; Sternum (bone marrow), i.v.): 1,164 cpm/g
- Net total ^59Fe content (cpm) ([6]; Urine (19 ml), i.v.): 1,180,900 cpm
- Net ^59Fe content (cpm/g) ([6]; Urine (19 ml, 2 ml sample), i.v.): 62,156 cpm/g
- rate constant of the elimination from the blood, linear phase of the regression ([6]; i.v.): 0.023 min⁻¹
- dose located in the urine ([6]; i.v., end of experiment): over 50%
- plasma levels of radioactivity [7]: hardly exceeded the background level
- Net ^59Fe content (cpm/g) ([8]; Heart): 188 cpm/g
- Net total ^59Fe content (cpm) ([8]; Heart): 2,878 cpm
- Net ^59Fe content (cpm/g) ([8]; Kidney): 1,762 cpm/g
- Net total ^59Fe content (cpm) ([8]; Kidney): 19,913 cpm
- Net ^59Fe content (cpm/g) ([8]; Liver): 499 cpm/g
- Net total ^59Fe content (cpm) ([8]; Liver): 29,574 cpm
- Net ^59Fe content (cpm/g) ([8]; Skeletal muscle): 117 cpm/g
- Net ^59Fe content (cpm/g) ([8]; Spleen): 200 cpm/g
- Net total ^59Fe content (cpm) ([8]; Spleen): 880 cpm
- Net ^59Fe content (cpm/g) ([8]; Sternum (bone marrow)): 917 cpm/g
- Net ^59Fe content (cpm/g) ([8]; Urine (5 ml sample)): 36,306 cpm/g
- Net total ^59Fe content (cpm) ([8]; Urine (15 ml)): 544,596 cpm
Compound: O=C([O-])CN(CCN(CC(=O)[O-])CC(=O)O)CC(=O)[O-].[Fe+3] [Fe^III EDTA]

- Distribution ratio (concentration in erythrocytes/concentration in medium) (human erythrocytes; 1 mM): 0.05
- Relative iron uptake, 15 minutes (rat jejunal sac): 2.0
- Relative iron uptake, 60 minutes (rat jejunal sac): 1.8
Compound: Fe^III citrate

- thermodynamic stability constant ([1]; 3:1 complex): 30
- ability to bind to BSA [9]: little ability to bind to BSA
- Distribution ratio (concentration in erythrocytes/concentration in medium) (human erythrocytes; 3 mM): 1.60
- concentration dependence of uptake (rat jejunal sac; 0.5 to 10 mM, uptake increased linearly): does not show saturation kinetics
- Iron uptake (n mole) (rat jejunal sac; iron transferred into serosal contents of sac, basal uptake subtracted, by maltol/iron molar ratio): 30.0 n mole
- time course of uptake (rat jejunal sac; jejunal sac, up to 90 minutes): linear for a period 90 minutes
- Relative iron uptake, 15 minutes (rat jejunal sac): 40
- Relative iron uptake, 60 minutes (rat jejunal sac): 5.8
- introduction of iron via the rat intestine (59Fe in organs), comparison ([5]; listed as maltol complex): more efficient than iron(III) EDTA
- introduction of iron via the rat intestine (59Fe in organs), comparison ([5]; listed as neutral 3:1 maltol:iron(III) complex): markedly superior to iron(II) sulphate
- 59Fe directed to the bone marrow (bulk, inferred) ([6]; in vivo, iv): approximately 90%
- dose located in combined tissue of heart, liver and spleen ([6]; in vivo, iv): approximately 10%
- dose located in the urine ([6]; in vivo, iv): less than 0.2%
- loss of iron in the urine ([4]; daily urine samples over 3 days): essentially zero loss of iron
- level of take-up of iron by whole body counting ([4]; 10 mg dose of iron, oral capsule, 14 day figure): 19%
- level of take-up of iron by whole body counting ([4]; 20 mg dose of iron, oral capsules, 14 day figure): 11%
Compound: Cc1occc(=O)c1[O-].Cc1occc(=O)c1[O-].Cc1occc(=O)c1[O-].[Fe+3] [Fe^III (maltol)3]
- binding of the complex to haemoglobin (haemoglobin): no evidence if found for binding
- time for uptake to reach equilibrium (human erythrocytes; erythrocytes): about 15 minutes

- Distribution ratio (concentration in erythrocytes/concentration in medium) (human erythrocytes; 1 mM): 0.08
- Relative iron uptake, 15 minutes (rat jejunal sac): 1.6
- Relative iron uptake, 60 minutes (rat jejunal sac): 0.8
Compound: O=C([O-])[C@H](O)[C@@H](O)[C@H](O)[C@H](O)CO.O=C([O-])[C@H](O)[C@@H](O)[C@H](O)[C@H](O)CO.[Fe+2] [Fe^II gluconate]
- introduction of iron via the rat intestine (59Fe in organs), comparison [5]: more effective than the sulphate or the EDTA complex

Continued, compound first:

Compound: Fe^III ascorbate
- Distribution ratio (concentration in erythrocytes/concentration in medium) (human erythrocytes; 1 mM): 0.12
- Relative iron uptake, 15 minutes (rat jejunal sac): 0.4
- Relative iron uptake, 60 minutes (rat jejunal sac): 0.8

Compound: O=C([O-])CCC(=O)[O-].[Fe+2] [Fe^II succinate]
- Relative iron uptake, 15 minutes (rat jejunal sac): 2.0
- Relative iron uptake, 60 minutes (rat jejunal sac): 1.0

Compound: Cc1occc(=O)c1O [maltol, 3-hydroxy-2-methyl-4-pyrone]
- log β3 (affinity for iron) ([1]; ligand maltol, iron): 30
- Ksol ([2]; ligand, log Ksol must be greater than 0 to solubilise iron(III) hydroxide): 0.8
- logD [3]: -0.18

Compound: O=S(=O)([O-])[O-].[Fe+2] [Fe^II sulphate]
- Relative iron uptake, 15 minutes (rat jejunal sac): 2.4
- Relative iron uptake, 60 minutes (rat jejunal sac): 1.4
- level of take-up of iron by whole body counting ([4]; 10 mg dose, at 7 days): 13%
- level of take-up of iron by whole body counting ([4]; 20 mg dose, at 7 days): 6%

Compound: [Cl][Fe]([Cl])[Cl] [FeCl3]
- Relative iron uptake, 15 minutes (rat jejunal sac): 1
- Relative iron uptake, 60 minutes (rat jejunal sac): 1

Compound: apotransferrin: iron-free transferrin, reference for log Ksol
- log Ksol [2]: 6.0
